# Measurements taken from ChEMBL document CHEMBL5390198, “Scaffold hopping of N-benzyl-3,4,5-trimethoxyaniline: 5,6,7-Trimethoxyflavan derivatives as novel potential anticancer agents modulating hippo signaling pathway” (2023).
# Calls of active or inactive are those of the source. The rule behind the calls is not given here.
# Assays:
# NCI-H322M = experiment: Antiproliferative activity against human NCI-H322M cells assessed as inhibition of cell growth at 10 uM measured after 24 to 72 hrs by SRB method relative to control; type: functional; conditions: time 24-72 hrs
# RPMI-8226 = experiment: Antiproliferative activity against human RPMI-8226 cells assessed as inhibition of cell growth at 10 uM measured after 24 to 72 hrs by SRB method relative to control; type: functional; conditions: time 24-72 hrs
# NCI-H460 = experiment: cells; type: functional; conditions: Homo sapiens, time 24-72 hrs
# Description: Antiproliferative activity against human NCI-H460 cells assessed as inhibition of cell growth at 10 uM measured after 24 to 72 hrs by SRB method relative to control
# A549 [1] = experiment: cells; type: functional; conditions: Homo sapiens, time 24-72 hrs
# Description: Antiproliferative activity against human A549 cells assessed as inhibition of cell growth at 10 uM measured after 24 to 72 hrs by SRB method relative to control
# HL-60 = experiment: Antiproliferative activity against human HL-60 cells assessed as inhibition of cell growth at 10 uM measured after 24 to 72 hrs by SRB method relative to control; type: functional; conditions: time 24-72 hrs
# NCI-H226 = experiment: cells; type: functional; conditions: Homo sapiens, time 24-72 hrs
# Description: Antiproliferative activity against human NCI-H226 cells assessed as inhibition of cell growth at 10 uM measured after 24 to 72 hrs by SRB method relative to control
# NCI-H522 = experiment: Antiproliferative activity against human NCI-H522 cells assessed as inhibition of cell growth at 10 uM measured after 24 to 72 hrs by SRB method relative to control; type: functional; conditions: time 24-72 hrs
# MOLT-4 = experiment: Antiproliferative activity against human MOLT-4 cells assessed as inhibition of cell growth at 10 uM measured after 24 to 72 hrs by SRB method relative to control; type: functional; conditions: time 24-72 hrs
# SR = experiment: Antiproliferative activity against human SR cells assessed as inhibition of cell growth at 10 uM by measured after 24 to 72 hrs SRB method relative to control; type: functional; conditions: time 24-72 hrs
# CCRF-CEM = experiment: Antiproliferative activity against human CCRF-CEM cells assessed as inhibition of cell growth at 10 uM measured after 24 to 72 hrs by SRB method relative to control; type: functional; conditions: time 24-72 hrs
# NCI-H23 = experiment: cells; type: functional; conditions: Homo sapiens, time 24-72 hrs
# Description: Antiproliferative activity against human NCI-H23 cells assessed as inhibition of cell growth at 10 uM measured after 24 to 72 hrs by SRB method relative to control
# HOP-92 = experiment: cells; type: functional; conditions: Homo sapiens, time 24-72 hrs
# Description: Antiproliferative activity against human HOP-92 cells assessed as inhibition of cell growth at 10 uM measured after 24 to 72 hrs by SRB method relative to control
# EKVX = experiment: cells; type: functional; conditions: Homo sapiens, time 24-72 hrs
# Description: Antiproliferative activity against human EKVX cells assessed as inhibition of cell growth at 10 uM measured after 24 to 72 hrs by SRB method relative to control
# K562 = experiment: Antiproliferative activity against human K562 cells assessed as inhibition of cell growth at 10 uM measured after 24 to 72 hrs by SRB method relative to control; type: functional; conditions: time 24-72 hrs
# HOP-62 = experiment: Antiproliferative activity against human HOP-62 cells assessed as inhibition of cell growth at 10 uM measured after 24 to 72 hrs by SRB method relative to control; type: functional; conditions: time 24-72 hrs
# MDA-MB-231 = experiment: Antiproliferative activity against human MDA-MB-231 cells assessed as inhibition of cell growth at 10 uM measured after 24 to 72 hrs by SRB method relative to control; type: functional; conditions: time 24-72 hrs
# SF-295 = experiment: Growth inhibition of human SF-295 cells measured after 24 to 72 hrs by SRB method; type: functional; conditions: time 24-72 hrs
# A549 [2] = experiment: Induction of cell cycle arrest in human A549 cells assessed as decrease in cyclin A1 expression measured after 24 hrs by Western blot analysis; type: functional, cell-based; conditions: dose 1-4 µM
# T47D = experiment: Antiproliferative activity against human T47D cells assessed as inhibition of cell growth at 10 uM measured after 24 to 72 hrs by SRB method relative to control; type: functional; conditions: time 24-72 hrs
# A549 [3] = experiment: Induction of apoptosis in human A549 cells assessed as increase necrotic cell death at 1 to 4 uM measured after 48 hrs by annexin V-FITC/PI staining based flow cytometry analysis; type: functional; conditions: dose 1-4 µM
# PC-3 [4] = experiment: Potency index, ratio of enzalutamide GI50 to test compound GI50 for growth inhibition of human PC-3 cells measured after 24 to 72 hrs by SRB method; type: functional; conditions: time 24-72 hrs
# BT-549 = experiment: Antiproliferative activity against human BT-549 cells assessed as inhibition of cell growth at 10 uM measured after 24 to 72 hrs by SRB method relative to control; type: functional; conditions: time 24-72 hrs
# SF-268 = experiment: Growth inhibition of human SF-268 cells measured after 24 to 72 hrs by SRB method; type: functional; conditions: time 24-72 hrs
# A549 [5] = experiment: Inhibition of PI3K/AKT/mTOR signalling pathway in human A549 cells assessed as inhibition of P70S6K phosphorylation measured after 24 hrs by Western blot analysis; type: cell-based; conditions: dose <= 4.0 µM
# A549 [6] = experiment: Induction of apoptosis in human A549 cells assessed as decrease in caspase-3 expression measured after 48 hrs by Western blot analysis; type: functional, cell-based; conditions: dose <= 4.0 µM
# DU-145 [7] = experiment: Potency index, ratio of enzalutamide GI50 to test compound GI50 for growth inhibition of human DU-145 cells measured after 24 to 72 hrs by SRB method; type: functional; conditions: time 24-72 hrs
# MCF7 = experiment: Antiproliferative activity against human MCF7 cells assessed as inhibition of cell growth at 10 uM measured after 24 to 72 hrs by SRB method relative to control; type: functional; conditions: time 24-72 hrs
# A549 [8] = experiment: Activation of Hippo signaling pathway in human A549 cells assessed as increase in p-MOB1/MOB1 ratio at upto 4 uM incubated for 24 hrs by Western blotting analysis; type: cell-based; conditions: filed as activator
# A549 [9] = experiment: Induction of cell cycle arrest in human A549 cells assessed as increase in p53 expression measured after 24 hrs by Western blot analysis; type: functional, cell-based; conditions: dose 1-4 µM
# MDA-MB-435 = experiment: Growth inhibition of human MDA-MB-435 cells measured after 24 to 72 hrs by SRB method; type: functional; conditions: time 24-72 hrs
# A498 = experiment: Growth inhibition of human A498 cells measured after 24 to 72 hrs by SRB method; type: functional; conditions: time 24-72 hrs
# COLO 205 = experiment: Growth inhibition of human COLO 205 cells measured after 24 to 72 hrs by SRB method; type: functional; conditions: time 24-72 hrs
# A549 [10] = experiment: Induction of apoptosis in human A549 cells assessed as decrease in PARP expression measured after 48 hrs by Western blot analysis; type: functional, cell-based; conditions: dose <= 4.0 µM
# KM12 = experiment: Growth inhibition of human KM12 cells measured after 24 to 72 hrs by SRB method; type: functional; conditions: time 24-72 hrs
# A549 [11] = experiment: Induction of cell cycle arrest in human A549 cells assessed as increase in number of cells in G2/M phase by flow cytometry analysis; type: functional, cell-based; conditions: dose 1-4 µM
# A549 [12] = experiment: Induction of cell cycle arrest in human A549 cells assessed as decrease in cyclin H expression measured after 24 hrs by Western blot analysis; type: functional, cell-based; conditions: dose 1-4 µM
# A549 [13] = experiment: Induction of apoptosis in human A549 cells assessed as increase in cleaved caspase-3 expression measured after 48 hrs by Western blot analysis; type: functional, cell-based; conditions: dose <= 4.0 µM
# Hs-578T = experiment: Antiproliferative activity against human Hs-578T cells assessed as inhibition of cell growth at 10 uM measured after 24 to 72 hrs by SRB method relative to control; type: functional; conditions: time 24-72 hrs
# A549 [14] = experiment: Activation of Hippo signaling pathway in human A549 cells assessed as decrease in YAP incubated for 24 hrs by Western blotting analysis; type: cell-based; conditions: filed as activator, dose <= 4.0 µM
# PC-3 [15] = experiment: Growth inhibition of human PC-3 cells measured after 24 to 72 hrs by SRB method; type: functional; conditions: time 24-72 hrs
# A549 [16] = experiment: Induction of cell cycle arrest in human A549 cells assessed as decrease in Cdc25c expression measured after 24 hrs by Western blot analysis; type: functional, cell-based; conditions: dose 1-4 µM
# A549 [17] = experiment: Induction of apoptosis in human A549 cells assessed as increase in cleaved PARP expression measured after 48 hrs by Western blot analysis; type: functional, cell-based; conditions: dose <= 4.0 µM
# DU-145 [18] = experiment: Growth inhibition of human DU-145 cells measured after 24 to 72 hrs by SRB method; type: functional; conditions: time 24-72 hrs
# A549 [19] = experiment: Induction of apoptosis in human A549 cells assessed as increase in apoptotic cells measured after 48 hrs by annexin V-FITC/PI staining based flow cytometry analysis; type: functional, cell-based; conditions: dose 1-4 µM
# MDA-MB-468 = experiment: Antiproliferative activity against human MDA-MB-468 cells assessed as inhibition of cell growth at 10 uM measured after 24 to 72 hrs by SRB method relative to control; type: functional; conditions: time 24-72 hrs
# A549 [20] = experiment: Induction of cell cycle arrest in human A549 cells assessed as decrease in cyclin B1 expression measured after 24 hrs by Western blot analysis; type: functional, cell-based; conditions: dose 1-4 µM
# SK-OV-3 = experiment: Growth inhibition of human SK-OV-3 cells measured after 24 to 72 hrs by SRB method; type: functional; conditions: pooled result: one value given for 7 cell lines, strains, targets or settings, time 24-72 hrs
# SK-MEL-28 = experiment: Growth inhibition of human SK-MEL-28 cells measured after 24 to 72 hrs by SRB method; type: functional; conditions: time 24-72 hrs
# A549 [21] = experiment: Induction of apoptosis in human A549 cells assessed as increase in cleaved caspase-7 expression measured after 48 hrs by Western blot analysis; type: functional, cell-based; conditions: dose <= 4.0 µM
# A549 [22] = experiment: Induction of cell cycle arrest in human A549 cells assessed as decrease in number of cells in G0/G1 phase at 1 to 4 uM by flow cytometry analysis; type: functional, cell-based; conditions: dose 1-4 µM
# A549 [23] = experiment: Activation of Hippo signaling pathway in human A549 cells assessed as increase in […] at upto 4 uM incubated for 24 hrs by Western blotting analysis; type: cell-based; conditions: filed as activator
# ACHN = experiment: Growth inhibition of human ACHN cells measured after 24 to 72 hrs by SRB method; type: functional; conditions: time 24-72 hrs
smiles,measurement,setting,value
COc1ccc(C(=O)Nc2cccc(C3CCc4c(cc(OC)c(OC)c4OC)O3)c2)cc1 (configuration not stated),inhibition at 10 µM,NCI-H322M,24.1%
same,inhibition at 10 µM,RPMI-8226,> 60%
same,inhibition at 10 µM,NCI-H460,74.3%
same,inhibition at 10 µM,A549 [1],56.6%
same,inhibition at 10 µM,HL-60,> 60%
same,inhibition at 10 µM,NCI-H226,69.9%
same,inhibition at 10 µM,NCI-H522,57.3%
same,inhibition at 10 µM,MOLT-4,> 60%
same,inhibition at 10 µM,SR,> 60%
same,inhibition at 10 µM,CCRF-CEM,> 60%
same,inhibition at 10 µM,NCI-H23,41.1%
same,inhibition at 10 µM,HOP-92,38.7%
same,inhibition at 10 µM,EKVX,45.3%
same,inhibition at 10 µM,K562,> 60%
same,inhibition at 10 µM,HOP-62,60.2%
COc1ccc(NC(=O)c2cccc(C3CCc4c(cc(OC)c(OC)c4OC)O3)c2)cc1 (configuration not stated),inhibition at 10 µM,NCI-H322M,46.1%
same,inhibition at 10 µM,RPMI-8226,> 60%
same,inhibition at 10 µM,MDA-MB-231,> 60%
same,GI50,SF-295,2.51 µM
same,Activity,A549 [2],Dose-Dependent Effect
same,inhibition at 10 µM,T47D,> 60%
same,inhibition at 10 µM,NCI-H460,81.8%
same,Activity,A549 [3],inactive
same,fold change (FC),PC-3 [4],12
same,inhibition at 10 µM,A549 [1],67.9%
same,inhibition at 10 µM,BT-549,> 60%
same,inhibition at 10 µM,HL-60,> 60%
same,GI50,SF-268,5.13 µM
same,inhibition,A549 [5],Dose-Dependent Effect
same,Activity,A549 [6],Dose-Dependent Effect
same,fold change (FC),DU-145 [7],12
same,inhibition at 10 µM,MCF7,> 60%
same,Activity,A549 [8],Active
same,inhibition at 10 µM,NCI-H226,52.5%
same,inhibition at 10 µM,NCI-H522,78.2%
same,Activity,A549 [9],Dose-Dependent Effect
same,GI50,MDA-MB-435,0.52 µM
same,GI50,A498,1.38 µM
same,GI50,COLO 205,2.4 µM
same,inhibition at 10 µM,MOLT-4,> 60%
same,Activity,A549 [10],Dose-Dependent Effect
same,inhibition at 10 µM,SR,> 60%
same,GI50,KM12,3.47 µM
same,Activity,A549 [11],Dose-Dependent Effect
same,Activity,A549 [12],Dose-Dependent Effect
same,Activity,A549 [13],Dose-Dependent Effect
same,inhibition at 10 µM,CCRF-CEM,> 60%
same,inhibition at 10 µM,Hs-578T,> 60%
same,Activity,A549 [14],Dose-Dependent Effect
same,inhibition at 10 µM,NCI-H23,47.9%
same,GI50,PC-3 [15],1.58 µM
same,Activity,A549 [16],Dose-Dependent Effect
same,Activity,A549 [17],Dose-Dependent Effect
same,GI50,DU-145 [18],2.95 µM
same,inhibition at 10 µM,HOP-92,102%
same,inhibition at 10 µM,EKVX,53%
same,Activity,A549 [19],Dose-Dependent Effect
same,inhibition at 10 µM,MDA-MB-468,> 60%
same,Activity,A549 [20],Dose-Dependent Effect
same,inhibition at 10 µM,K562,> 60%
same,GI50,SK-OV-3,2.82 µM
same,GI50,SK-MEL-28,4.07 µM
same,Activity,A549 [21],Dose-Dependent Effect
same,Activity,A549 [22],Active
same,Activity,A549 [23],Active
same,inhibition at 10 µM,HOP-62,69.3%
same,GI50,ACHN,4.27 µM
